# Laboratory results taken from article PMC8570331, “8-Hydroxyquinoline-Amino Acid Hybrids and Their Half-Sandwich Rh and Ru Complexes: Synthesis, Anticancer Activities, Solution Chemistry and Interaction with Biomolecules” (International Journal of Molecular Sciences, 2021).
# Assays:
# [1] = target: T1, HSA site I (subdomain IIA) (Homo sapiens, UniProt P02768); test: Trp-214 quenching, spectrofluorometry; type: binding; settings: cHSA = 1 µM, pH 7.4 (PBS’), λEX = 295 nm
# T1 construct: purchased Sigma-Aldrich A8763
# T1 sequence (P02768 25-609): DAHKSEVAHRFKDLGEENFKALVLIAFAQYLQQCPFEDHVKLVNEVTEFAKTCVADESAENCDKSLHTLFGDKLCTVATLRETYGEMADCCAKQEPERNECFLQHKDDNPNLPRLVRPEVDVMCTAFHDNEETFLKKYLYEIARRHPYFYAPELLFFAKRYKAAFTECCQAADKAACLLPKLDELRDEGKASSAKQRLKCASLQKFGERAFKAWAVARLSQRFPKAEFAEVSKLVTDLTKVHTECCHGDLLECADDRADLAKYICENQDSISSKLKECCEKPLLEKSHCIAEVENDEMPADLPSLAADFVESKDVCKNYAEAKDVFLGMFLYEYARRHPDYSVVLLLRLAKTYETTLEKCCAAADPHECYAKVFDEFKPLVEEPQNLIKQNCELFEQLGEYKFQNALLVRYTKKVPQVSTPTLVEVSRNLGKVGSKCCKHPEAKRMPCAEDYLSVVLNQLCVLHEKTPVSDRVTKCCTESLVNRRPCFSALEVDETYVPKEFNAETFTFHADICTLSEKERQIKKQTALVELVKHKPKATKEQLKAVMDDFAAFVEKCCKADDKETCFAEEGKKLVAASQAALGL
# Method: Tryptophan (Trp-214) quenching and dansylglycine (DG) site marker displacement experiments were performed to calculate binding constants for site I and II, respectively, similar to our previous works.
# Fluorescence measurements were carried out on a Fluoromax (Horiba Jobin Yvon, Longjumeau, France) spectrofluorometer using 1 cm × 1 cm quartz cuvette. Samples contained 1 µM HSA or 1 µM DG and 1 µM HSA, or 20 µM (nucleotide) ct-DNA and 5 µM EB, and the complex concentration was varied between 0 and 40 µM or 0 and 300 µM, respectively. Spectroscopic measurements were carried out on individually prepared samples. Excitation wavelengths were 295 nm for Trp-214 quenching, 340 nm for the DG displacement studies and 510 nm for the ct-DNA–EB system. The calculated conditional stability constants for HSA–complex species were obtained using the computer program HypSpec. Calculations always were based on data obtained from at least two independent measurements. Self-absorbance and inner filter effect had to be taken into account, and corrections were made as was described in our former works.
# Ac-Phe–His–Ala-NH2 (FHA) = test: Binding to the His model tripeptide FHA by 1H NMR; settings: pH 7.4 (PBS’), 0.5 or 1 mM
# Source text: The slow binding kinetics indicates coordination binding mode, and the monodentate coordination of a side chain donor of HSA takes place most likely by the replacement of the co-ligand water or chloride, while the original bidentate (N,O) ligand remains coordinated, as it was also reported to analogous high stability RuCym and RhCp* complexes.
# Similar reaction rates with FHA were found for the HQCl-D-Pro and HQCl-D-hPro complexes, and the reaction with this simple oligopeptide is much faster compared to the HSA. Conditional stability constants determined for the complex-FHA ternary species by ^1H NMR spectroscopic measurements (exemplary spectra are presented in Figure S29) are shown in Table 4. […] In all, this oligopeptide model can serve as a good binding model for surface-exposed side chains, although it provides limited information about binding events at more deeply located binding pockets of HSA, where the role of secondary interactions might be more significant.
# (§1) Bruker Avance III HD Ascend 500 Plus instrument (Billerica, MA, USA) was used for NMR studies. ^1H NMR spectroscopic measurements were carried out with a WATERGATE water suppression pulse scheme in the presence of 10% (v/v) D2O in most cases. DSS internal standard was added to samples to obtain reference peaks. Complex concentrations were 0.5 mM or 1.0 mM, and 0.5 equiv. HSA was added. ^1H NMR titrations were carried out in the presence of 0.2 M KNO3. With the FHA model peptide, the measurements were performed at 0.5 or 1 mM metal complex concentrations, and 1:1, 1:2 or 2:1 peptide-to-metal complex ratios were applied. The computer program HypSpec was used to obtain stability constants.
# Colo-205 cells = test: Annexin V-FITC / propidium iodide apoptosis induction assay, flow cytometry; type: cell-based, human; settings: 25 μM, 3 h induction
# Source text: 12H-Benzo[α]phenothiazine (M627) and cisplatin were used as positive controls. Annexin-V assay offers the possibility of detecting early phases of apoptosis. Apoptosis is a morphologically and biochemically distinct form of programmed cell death, which is the preferred mode of action for an anticancer compound. PI was used to distinguish between viable, early apoptotic and necrotic or late apoptotic cells. […] In order to better understand the different behavior of the studied compounds, an in-depth analysis of the various solution (physico-)chemical properties of the ligands and complexes were performed.
# The assay was carried out using an Annexin V-FITC Apoptosis Detection Kit from Sigma-Aldrich according to the manufacturer’s instructions. The concentration of the Colo-205 cell suspension was adjusted to approximately 0.5 × 10^6 cells per mL in RPMI 1640 medium, and the cell suspension was distributed in 1 mL aliquots into a 24-well plate and then incubated overnight at 37 °C and 5% CO2. The next day, the medium was removed and replaced by 1 mL RPMI 1640 medium containing the compounds except for the control samples. […] After the incubation period, the samples were washed with PBS, and a fresh medium was added to the samples. The cells were incubated overnight at 37 °C and 5% CO2. The next day, 200 μL 0.25% Trypsin (Trypsin-Versen) was added to the samples until cells appeared detached, followed by the addition of 400 μL of medium supplemented with 10% bovine serum. The cells were collected in Eppendorf tubes and centrifuged at 2000× g for 2 min. The harvested cells were re-suspended in a fresh serum-free RPMI 1640 culture medium. After this step, the apoptosis assay was carried out according to the protocol of the kit. The fluorescence was analyzed immediately using a ParTec CyFlow flow cytometer (Partec GmbH, Münster, Germany).
# [2] = Solution stability of the complexes by 1H NMR; type: physicochemical; settings: pH 0.7, 24 h equilibration, 500 μM
# Method: as §1
# [3] = tested on: human serum albumin (HSA); test: CD spectroscopy of HSA secondary structure; type: binding; settings: up to 5 equivalents complex, 50% without complex
# Method: Possible changes in the secondary structure of HSA due to its interaction with the RhCp* and RuCym complexes of HQCl-D-hPro were investigated by CD spectroscopy. HSA is mostly composed of α-helices, and its CD spectrum can be characterized by two negative bands (208 and 222 nm). […] Only at higher complex excess (>10) we observed somewhat larger changes; however, such protein-to-complex ratios are far from the biologically relevant conditions.
# CD spectroscopy experiments were performed by a JASCO-J-1500 (ABL&E–JASCO Hungary Ltd., Budapest, Hungary) spectrometer using 0.2 or 1 cm optical path length in the wavelength range from 200 to 250 or to 350 nm. The scanning speed was 200 nm/min. The analytical concentration of HSA and ct-DNA was constant (2 and 98 µM, respectively), and the concentration of the complexes was varied (0–26 and 0–47 µM, respectively).
smiles,measurement,setting,value
"Cc1c(C)c(C)[c-](C)c1C.O=C(O)[C@H]1CCC[NH+]1Cc1cc(Cl)c2cccnc2c1[O-].[Cl-].[Cl-].[Rh+3] [RhCp*–HQCl-D-Pro, [RhCp*(HQCl-D-Pro)Cl]Cl]","Trp-214 Quenching logKQ′, Site I",[1],5.6 ± 0.1
same,FHA logKFHA′,Ac-Phe–His–Ala-NH2 (FHA),4.4 ± 0.2
"O=C(O)[C@H]1CCCCN1Cc1cc(Cl)c2cccnc2c1O [HQCl-D-hPro, (R)-5-chloro-7-((homoproline-1-yl)methyl)8-hydroxyquinoline]","cell death (Q1, A− PI+), gated events",Colo-205 cells,27.5%
same,"early apoptosis (Q3, A+ PI−), gated events",Colo-205 cells,0.987%
same,"late apoptosis and necrosis (Q2, A+ PI+), gated events",Colo-205 cells,9.1%
"Cc1c(C)c(C)[c-](C)c1C.O=C(O)[C@H]1CCCC[NH+]1Cc1cc(Cl)c2cccnc2c1[O-].[Cl-].[Cl-].[Rh+3] [RhCp*–HQCl-D-hPro, [RhCp*(HQCl-D-hPro)Cl]Cl]","Trp-214 Quenching logKQ′, Site I",[1],5.6 ± 0.1
same,FHA logKFHA′,Ac-Phe–His–Ala-NH2 (FHA),4.5 ± 0.2
same,fraction of complex dissociated,[2],~ 3%
same,"cell death (Q1, A− PI+), gated events",Colo-205 cells,20.7%
same,"early apoptosis (Q3, A+ PI−), gated events",Colo-205 cells,0.838%
same,"late apoptosis and necrosis (Q2, A+ PI+), gated events",Colo-205 cells,7.5%
same,"late apoptosis and necrosis (Q2, A+ PI+), gated events",Colo-205 cells; listed as RhCp*‒HQCl-D-hPro,7.50%
same,α-helix content of HSA in the presence of the complex,[3],47%
"Cc1ccc(C(C)C)cc1.O=C(O)[C@H]1CCC[NH+]1Cc1cc(Cl)c2cccnc2c1[O-].[Cl-].[Cl-].[Ru+2] [RuCym–HQCl-D-Pro, [RuCym(HQCl-D-Pro)Cl]Cl]","Trp-214 Quenching logKQ′, Site I",[1],5.5 ± 0.1
same,FHA logKFHA′,Ac-Phe–His–Ala-NH2 (FHA),4.4 ± 0.3
same,"cell death (Q1, A− PI+), gated events",Colo-205 cells,27.9%
same,"early apoptosis (Q3, A+ PI−), gated events",Colo-205 cells,0.288%
same,"late apoptosis and necrosis (Q2, A+ PI+), gated events",Colo-205 cells,5.37%
"Cc1ccc(C(C)C)cc1.O=C(O)[C@H]1CCCC[NH+]1Cc1cc(Cl)c2cccnc2c1[O-].[Cl-].[Cl-].[Ru+2] [RuCym–HQCl-D-hPro, [RuCym(HQCl-D-hPro)Cl]Cl]","Trp-214 Quenching logKQ′, Site I",[1],5.3 ± 0.1
same,FHA logKFHA′,Ac-Phe–His–Ala-NH2 (FHA),4.6 ± 0.2
same,fraction of complex dissociated,[2],~ 2%
same,"late apoptosis and necrosis (Q2, A+ PI+), gated events",Colo-205 cells,5.4%
same,α-helix content of HSA in the presence of the complex,[3],46%
